Legend:
[1] = tested on: HMC-1.2 cell line (imatinib-resistant cell line, having c-kit G560V/D816V mutation); experiment: Growth inhibition of mastocytosis cell line HMC-1.2; format: cell-based; conditions: HMC-1.2, 72 hours
Procedure: [Worded in the source for another cell line; this cell line is reported under the same test.] Specifically, 100 μl of a Ba/F3 cell line with a c-kit D816V mutation (FIG. 1) was added to each well of a 96-well plate at a concentration of 10,000 cells/100 μl. […] As the control compounds, imatinib and sunitinib which are c-kit inhibitors were used.

[2] = tested on: neoplastic mast cells exhibiting wild type (wt) KIT or the rarely occurring F522C-mutated variant of KIT; conditions: literature, background; cited from earlier work
[3] = tested on: neoplastic mast cells with the c-KIT mutation D816V; conditions: literature, background; cited from earlier work
[4] = tested on: HMC-1.2 cells subcutaneous tumor; experiment: Tumor growth inhibition in mastocytosis mouse model with HMC-1.2 cell line; format: in vivo, NOD SCID female mice
Procedure: (§1) As mice, 6-8-week-old NOD SCID female mice (18 to 22 g) (GemPharmatech Co., Ltd.) were prepared. Mice were acclimatized for 7 days before use in the experiment, and mice with abnormal health were excluded from the experiment. Mice were bred in a cage (300×180×150 mm) at a 22±3° C. and a relative humidity of 40% to 70% with a 12-hr light/12-hr dark cycle. Mice were allowed access to sterilized dry granular food (Beijing Keaoxieli Feed Co., Ltd., Beijing, China) and water ad libitum for the entire experimental period except for the period specified in the protocol.
50 ml of HMC-1.2 cells suspension-cultured in a 75T flask were placed in a conical tube and centrifuged at 1,200 rpm for 2 minutes, centrifuged with DPBS (Dulbecco's Phosphate-Buffered Saline, Welgene) at 1,200 rpm for 2 minutes, washed, and then suspended in RPMI1640 (Welgene) without antibiotics and fetal bovine serum (FBS).
Thereafter, when the average tumor volume reached 150 to 200 mm^3, 4 mice were assigned to each group so that the average tumor volume at each group and treatment time was the same between the groups.
In addition, the width and length of the tumor were measured using a caliper at 3-day intervals, and the tumor volume was calculated using the following equation.
(V: tumor volume, W: tumor width, and L: tumor length)
In addition, the mice were sacrificed 3 weeks after the start of oral administration of each drug and the tumor weight was measured using a digital scale. For each data, one-way ANOVA was used to test the significance of each group.

[5] = tested on: inflammatory response caused by mastocytosis (HMC-1.2 mouse model); experiment: Spleen/body weight ratio in mastocytosis mouse model (inflammatory response); format: in vivo, NOD SCID female mice
Procedure: as §1
50 ml of HMC-1.2 cells suspension-cultured in a 75T flask were placed in a conical tube and centrifuged at 1,200 rpm for 2 minutes, centrifuged with DPBS (Dulbecco's Phosphate-Buffered Saline, Welgene) at 1,200 rpm for 2 minutes, washed, and then suspended in RPMI1640 (Welgene) without antibiotics and fetal bovine serum (FBS). Then, the cells were stained with trypan blue, counted with a hemocytometer, and then HMC-1.2 cells (1×10^6) in a mixture of 0.1 ml L-15 and Matrigel (BD, cat. No. 356234) (1:1) were subcutaneously injected into the right flanks of mice anesthetized by intraperitoneal administration of Avertin (250 mg/kg), thus inducing tumors.
Thereafter, when the average tumor volume reached 150 to 200 mm^3, 4 mice were assigned to each group so that the average tumor volume at each group and treatment time was the same between the groups. Then, each of imatinib at a dose of 90 mg/kg, sunitinib at doses of 20 and 40 mg/kg, and PHI-101 at doses of 7, 20, 40 and 80 mg/kg was administered orally to the mice once daily for 3 weeks. For oral administration, each compound was dissolved in 5% 1-methyl-2-pyrrolidone and then completely mixed in 15% Kolliphor, 30% PEG E400 HS15 and 50% 0.05M citric acid.
Specifically, 3 weeks after administering each drug to the mastocytosis mouse model of Example 3-1, the mice were sacrificed, the body weight and spleen weight were measured using a digital scale, and then the spleen/body weight ratio was calculated.

[6] = 90 mg/kg oral once daily for 3 weeks
[7] = 20 mg/kg oral once daily for 3 weeks
[8] = 40 mg/kg oral once daily for 3 weeks

SMILES: Cc1nc(Nc2ncc(C(=O)Nc3c(C)cccc3Cl)s2)cc(N2CCN(CCO)CC2)n1 [Dasatinib]
- GI50 [1]: 312 nM

SMILES: Cc1ccc(NC(=O)c2ccc(CN3CCN(C)CC3)cc2)cc1Nc1nccc(-c2cccnc2)n1 [Imatinib, reference compound]
- growth of neoplastic mast cells with wt KIT or F522C KIT [2]: counteract the growth
- GI50 [1]: 17100 nM
- growth of neoplastic mast cells with c-KIT D816V [3]: failed to inhibit the growth
- Tumor growth inhibition (TGI) (%) Tumor weight [4, 6]: 7.8%
- Spleen/body weight ratio % of control [5, 6]: 97.7%
- Spleen/body weight ratio Inhibition (%) [5, 6]: 2.3%

SMILES: CCN(CC)CCNC(=O)c1c(C)[nH]c(/C=C2\C(=O)Nc3ccc(F)cc32)c1C [Sunitinib, reference compound]
- GI50 [1]: 1300 nM
- Tumor growth inhibition (TGI) (%) Timor volume [4, 7]: 37.3%
- Tumor growth inhibition (TGI) (%) Tumor weight [4, 7]: 49.5%
- Tumor growth inhibition (TGI) (%) Timor volume [4, 8]: 46.2%
- Tumor growth inhibition (TGI) (%) Tumor weight [4, 8]: 47.9%
- Spleen/body weight ratio % of control [5, 7]: 104.3%
- Spleen/body weight ratio Inhibition (%) [5, 7]: −4.3%
- Spleen/body weight ratio % of control [5, 8]: 102.7%
- Spleen/body weight ratio Inhibition (%) [5, 8]: −2.7%

SMILES: Cc1ccc(C(=O)Nc2ccc(CN3CCN(C)CC3)c(C(F)(F)F)c2)cc1C#Cc1cnc2cccnn12 [Ponatinib]
- GI50 [1]: 194 nM

Source: patent US20230263792A1, “USE OF 2,3,5-SUBSTITUTED THIOPHENE COMPOUND FOR PREVENTING, ALLEVIATION, OR TREATING MASTOCYTOSIS” (PHAROS IBIO CO., LTD, priority 2020, published 2023)
